Measured values from patent US20110182850A1, “ORGANIC COMPOUNDS AND THEIR USES” (priority 2009, published 2011).

Molecular target: T1, HCV NS3-4A serine protease (full-length NS3-4A protein, genotype 1a, strain HCV-1) (Hepatitis C virus genotype 1a, UniProt P26664)
T1 construct: using the full-length NS3-4A protein (genotype 1a, strain HCV-1)
Assay: HCV NS3-4A protease assay
Type: biochemical
Conditions: Protease IC50
Description: The inhibitory activity of certain compounds of Table A against HCV NS3-4A serine protease is determined in a homogenous assay using the full-length NS3-4A protein (genotype 1a, strain HCV-1) and a commercially available internally-quenched fluorogenic peptide substrate as described by Taliani, M., et al. 1996 Anal. Biochem. 240:60-67, which is incorporated by reference in its entirety.

T1 sequence (P26664 1658-1711): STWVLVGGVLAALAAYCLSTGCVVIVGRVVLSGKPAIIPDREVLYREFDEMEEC
T1 sequence (P26664 1027-1657): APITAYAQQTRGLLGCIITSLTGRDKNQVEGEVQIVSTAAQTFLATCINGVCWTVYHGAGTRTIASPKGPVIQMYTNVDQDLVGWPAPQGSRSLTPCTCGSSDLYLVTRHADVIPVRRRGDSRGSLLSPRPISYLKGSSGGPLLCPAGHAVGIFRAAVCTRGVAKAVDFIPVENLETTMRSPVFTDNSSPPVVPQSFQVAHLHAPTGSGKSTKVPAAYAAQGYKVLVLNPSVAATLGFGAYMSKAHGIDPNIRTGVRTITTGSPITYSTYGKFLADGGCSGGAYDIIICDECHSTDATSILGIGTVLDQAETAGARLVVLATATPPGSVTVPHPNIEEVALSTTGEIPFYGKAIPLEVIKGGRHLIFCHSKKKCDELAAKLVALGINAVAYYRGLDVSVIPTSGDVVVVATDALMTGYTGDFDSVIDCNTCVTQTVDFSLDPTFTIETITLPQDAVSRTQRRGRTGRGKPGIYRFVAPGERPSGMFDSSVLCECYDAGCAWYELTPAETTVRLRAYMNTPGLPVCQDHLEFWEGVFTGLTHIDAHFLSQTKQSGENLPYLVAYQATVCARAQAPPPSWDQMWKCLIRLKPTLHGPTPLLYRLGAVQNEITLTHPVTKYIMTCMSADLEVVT

`C=C[C@@H]1C[C@]1(NC(=O)[C@@H]1C[C@@]2(CN1C(=O)[C@@H](NC(=O)[C@@H](NC(=O)C1CCCCN1C(C)C)C(C)(C)C)C(C)(C)C)C(C)(C)C21CCC1)C(=O)NS(=O)(=O)C(C)(C)C` (stereo partly drawn) [Compound 93, (5R,8S)-N-{(1R,2S)-1-[(tert-butylsulfonyl)carbamoyl]-2-vinylcyclopropyl}-7-[(2S)-2-{[(2S)-2-{[(1-isopropylpiperidin-2-yl)carbonyl]amino}-3,3-dimethylbutanoyl]amino}-3,3-dimethylbutanoyl]-10,10-dimethyl-7-azadispiro[3.0.4.1]decane-8-carboxamide] and `C=C[C@@H]1C[C@]1(NC(=O)[C@@H]1C[C@@]2(CN1C(=O)[C@@H](NC(=O)[C@@H](NC(=O)C1CCCCN1C(C)C)C(C)(C)C)C(C)(C)C)C(C)(C)C21CCC1)C(=O)NS(C)(=O)=O` (stereo partly drawn) [Compound 94, (5R,8S)-7-[(2S)-2-{[(2S)-2-{[(1-isopropylpiperidin-2-yl)carbonyl]amino}-3,3-dimethylbutanoyl]amino}-3,3-dimethylbutanoyl]-10,10-dimethyl-N-{(1R,2S)-1-[(methylsulfonyl)carbamoyl]-2-vinylcyclopropyl}-7-azadispiro[3.0.4.1]decane-8-carboxamide] are within 1.5-fold of each other in IC50: 8 nM for the first, 10 nM for the second.

`C=C[C@@H]1C[C@]1(NC(=O)[C@@H]1C[C@@]2(CN1C(=O)[C@@H](NC(=O)[C@@H](NC(=O)c1cccnc1)C1CCCCC1)C(C)(C)C)C(C)(C)C21CCC1)C(=O)NS(=O)(=O)C1CC1` [Compound 95, (5R,8S)-7-[(2S)-2-({(2S)-2-cyclohexyl-2-[(pyridin-3-ylcarbonyl)amino]acetyl}amino)-3,3-dimethylbutanoyl]-N-{(1R,2S)-1-[(cyclopropylsulfonyl)carba-moyl]-2-vinylcyclopropyl}-10,10-dimethyl-7-azadispiro[3.0.4.1]decane-8-carboxamide] and `C=C[C@@H]1C[C@]1(NC(=O)[C@@H]1C[C@@]2(CN1C(=O)[C@@H](NC(=O)[C@@H](NC(=O)c1ccncc1)C1CCCCC1)C(C)(C)C)C(C)(C)C21CCC1)C(=O)NS(=O)(=O)C1CC1` [Compound 96, (5R,8S)-7-[(2S)-2-{[(2S)-2-cyclohexyl-2-(isonicotinoylamino)acetyl]amino}-3,3-dimethylbutanoyl]-N-{(1R,2S)-1-[(cyclopropylsulfonyl)carba-moyl]-2-vinylcyclopropyl}-10,10-dimethyl-7-azadispiro[3.0.4.1]decane-8-carboxamide] are within 1.5-fold of each other in IC50: 0.9 nM for the first, 1 nM for the second.

Compared with `C=C[C@@H]1C[C@]1(NC(=O)[C@@H]1C[C@@]2(CN1C(=O)[C@@H](NC(=O)[C@@H](NC(=O)c1ccccn1)C1CCCCC1)C(C)(C)C)C(C)(C)C21CCC1)C(=O)NS(=O)(=O)C1CC1` [Compound 97, (5R,8S)-7-[(2S)-2-({(2S)-2-cyclohexyl-2-[(pyridin-2-ylcarbonyl)amino]acetyl}amino)-3,3-dimethylbutanoyl]-N-{(1R,2S)-1-[(cyclopropylsulfonyl)carba-moyl]-2-vinylcyclopropyl}-10,10-dimethyl-7-azadispiro[3.0.4.1]decane-8-carboxamide], `C=C[C@@H]1C[C@]1(NC(=O)[C@@H]1C[C@@]2(CN1C(=O)[C@@H](NC(=O)[C@@H](NC(=O)c1ccccc1)C1CCCCC1)C(C)(C)C)C(C)(C)C21CCC1)C(=O)NS(=O)(=O)C1CC1` [Compound 98, (5R,8S)-7-[(2S)-2-{[(2S)-2-(benzoylamino)-2-cyclohexylacetyl]amino}-3,3-dimethylbutanoyl]-N-{(1R,2S)-1-[(cyclopropylsulfonyl)carba-moyl]-2-vinylcyclopropyl}-10,10-dimethyl-7-azadispiro[3.0.4.1]decane-8-carboxamide] is 1.5-fold higher in IC50: 1 nM for the first, 1.5 nM for the second.

First: C=C[C@@H]1C[C@]1(NC(=O)[C@@H]1C[C@@]2(CN1C(=O)[C@@H](NC(=O)[C@@H](NC(C)=O)C1CCCCC1)C(C)(C)C)C(C)(C)C21CCC1)C(=O)NS(=O)(=O)C1CC1 [Compound 99, (5R,8S)-7-[(2S)-2-{[(2S)-2-acetamido-2-cyclohexylacetyl]amino}-3,3-dimethylbutanoyl]-N-{(1R,2S)-1-[(cyclopropylsulfonyl)carba-moyl]-2-vinylcyclopropyl}-10,10-dimethyl-7-azadispiro[3.0.4.1]decane-8-carboxamide]
Second: C=C[C@H]1C[C@@]1(NC(=O)[C@@H]1C[C@@]2(CN1C(=O)[C@@H](NC(=O)[C@@H](NC(=O)c1nccn1C)C1CCCCC1)C(C)(C)C)C(C)(C)C21CCC1)C(=O)NS(=O)(=O)C1CC1 [Compound 103, (5R,8S)-7-{(2S)-2-[(cyclohexyl{[(1-methyl-1H-imidazol-2-yl)carbonyl]amino}acetyl)amino]-3,3-dimethylbutanoyl}-N-{(1R,2S)-1-[(cyclopropylsulfonyl)carba-moyl]-2-vinylcyclopropyl}-10,10-dimethyl-7-azadispiro[3.0.4.1]decane-8-carboxamide]
The IC50 of the first is 4-fold higher: 6 nM for the first, 1.5 nM for the second.

Going from `C=C[C@@H]1C[C@]1(NC(=O)[C@@H]1C[C@@]2(CN1C(=O)[C@@H](NC(=O)[C@@H](NC(=O)c1cnccn1)C(C)(C)C)C(C)(C)C)C(C)(C)C21CCC1)C(=O)NS(=O)(=O)C1CC1` [Compound 100, (5R,8S)-N-{(1R,2S)-1-[(cyclopropylsulfonyl)carba-moyl]-2-vinylcyclopropyl}-7-[(2S)-2-({(2S)-3,3-dimethyl-2-[(pyrazin-2-ylcarbonyl)amino]butanoyl}amino)-3,3-dimethylbutanoyl]-10,10-dimethyl-7-azadispiro[3.0.4.1]decane-8-carboxamide] to `C=C[C@H]1C[C@@]1(NC(=O)[C@@H]1C[C@@]2(CN1C(=O)[C@@H](NC(=O)[C@@H](NC(=O)c1ncc[nH]1)C1CCCCC1)C(C)(C)C)C(C)(C)C21CCC1)C(=O)NS(=O)(=O)C1CC1` [Compound 105, (5R,8S)-7-[(2S)-2-({cyclohexyl[(1H-imidazol-2-ylcarbonyl)amino]acetyl}amino)-3,3-dimethylbutanoyl]-N-{(1R,2S)-1-[(cyclopropylsulfonyl)carba-moyl]-2-vinylcyclopropyl}-10,10-dimethyl-7-azadispiro[3.0.4.1]decane-8-carboxamide], the IC50 falls from 4 nM to 0.9 nM (4.4-fold). The second is the more potent here.

`C=C[C@H]1C[C@@]1(NC(=O)[C@@H]1C[C@@]2(CN1C(=O)[C@@H](NC(=O)[C@@H](NC(=O)C(C)(C)N1CCOCC1)C1CCCCC1)C(C)(C)C)C(C)(C)C21CCC1)C(=O)NS(=O)(=O)C1CC1` [Compound 101, (5R,8S)-7-[(2S)-2-({cyclohexyl[(2-methyl-2-morpholin-4-ylpropanoyl)amino]acetyl}amino)-3,3-dimethylbutanoyl]-N-{(1R,2S)-1-[(cyclopropylsulfonyl)carba-moyl]-2-vinylcyclopropyl}-10,10-dimethyl-7-azadispiro[3.0.4.1]decane-8-carboxamide] and `C=C[C@H]1C[C@@]1(NC(=O)[C@@H]1C[C@@]2(CN1C(=O)[C@@H](NC(=O)[C@@H](NC(=O)C(C)(C)N1CCCCC1)C1CCCCC1)C(C)(C)C)C(C)(C)C21CCC1)C(=O)NS(=O)(=O)C1CC1` [Compound 104, (5R,8S)-7-[(2S)-2-({cyclohexyl[(2-methyl-2-piperidin-1-ylpropanoyl)amino]acetyl}amino)-3,3-dimethylbutanoyl]-N-{(1R,2S)-1-[(cyclopropylsulfonyl)carba-moyl]-2-vinylcyclopropyl}-10,10-dimethyl-7-azadispiro[3.0.4.1]decane-8-carboxamide] are within 1.5-fold of each other in IC50: 1 nM for the first, 0.7 nM for the second.

Compared with `C=C[C@H]1C[C@@]1(NC(=O)[C@@H]1C[C@@]2(CN1C(=O)[C@@H](NC(=O)[C@@H](NC(=O)C(C)(C)N1CCN(C(C)(C)C)CC1)C1CCCCC1)C(C)(C)C)C(C)(C)C21CCC1)C(=O)NS(=O)(=O)C1CC1` [Compound 102, (5R,8S)-7-[(2S)-2-{[{[2-(4-tert-butylpiperazin-1-yl)-2-methylpropanoyl]amino}(cyclo-hexyl)acetyl]amino}-3,3-dimethylbutanoyl]-N-{(1R,2S)-1-[(cyclopropylsulfonyl)carba-moyl]-2-vinylcyclopropyl}-10,10-dimethyl-7-azadispiro[3.0.4.1]decane-8-carboxamide], `C=C[C@H]1C[C@@]1(NC(=O)[C@@H]1C[C@@]2(CN1C(=O)[C@@H](NC(=O)[C@@H](NC(=O)[C@@H]1CCCO1)C1CCCCC1)C(C)(C)C)C(C)(C)C21CCC1)C(=O)NS(=O)(=O)C1CC1` [Compound 108, (5R,8S)-7-{(2S)-2-[(cyclohexyl{[(2S)-tetrahydrofuran-2-ylcarbonyl]amino}acetyl)amino]-3,3-dimethylbutanoyl}-N-{(1R,2S)-1-[(cyclopropylsulfonyl)carba-moyl]-2-vinylcyclopropyl}-10,10-dimethyl-7-azadispiro[3.0.4.1]decane-8-carboxamide] is 2.5-fold higher in IC50: 1 nM for the first, 2.5 nM for the second.

`C=C[C@H]1C[C@@]1(NC(=O)[C@@H]1C[C@@]2(CN1C(=O)[C@@H](NC(=O)[C@@H](NC(=O)c1ccno1)C1CCCCC1)C(C)(C)C)C(C)(C)C21CCC1)C(=O)NS(=O)(=O)C1CC1` [Compound 107, (5R,8S)-7-[(2S)-2-({cyclohexyl[(isoxazol-5-ylcarbonyl)amino]acetyl}amino)-3,3-dimethylbutanoyl]-N-{(1R,2S)-1-[(cyclopropylsulfonyl)carba-moyl]-2-vinylcyclopropyl}-10,10-dimethyl-7-azadispiro[3.0.4.1]decane-8-carboxamide] and `C=C[C@H]1C[C@@]1(NC(=O)[C@@H]1C[C@@]2(CN1C(=O)[C@@H](NC(=O)[C@@H](NC(=O)C1CNC(=O)C1)C1CCCCC1)C(C)(C)C)C(C)(C)C21CCC1)C(=O)NS(=O)(=O)C1CC1` (stereo partly drawn) [Compound 109, (5R,8S)-7-{(2S)-2-[(cyclohexyl{[(5-oxopyrrolidin-3-yl)carbonyl]amino}acetyl)amino]-3,3-dimethylbutanoyl}-N-{(1R,2S)-1-[(cyclopropylsulfonyl)carba-moyl]-2-vinylcyclopropyl}-10,10-dimethyl-7-azadispiro[3.0.4.1]decane-8-carboxamide] are the same in IC50: 0.6 nM for the first, 0.6 nM for the second.
